{
  "source": "patent US10980765B2",
  "about": "“Isothiocyanatostilbenes as a novel method and product for treating cancer” (BOARD OF SUPERVISORS OF LOUISIANA STATE UNIVERSITY AND …, priority 2015, dated 2021)",
  "key": {"[1]": {"test_system": "DU145 spheroids", "assay": "3D spheroid proliferation", "type": "cell-based", "details": "33 ng/mL HGF, Matrigel, 72 hours", "procedure": "Data are shown as the percent change in growth from T=0 to T=72 hours. For each of the six independent variables in each bar graph, a representative image at the 72 hour time point is shown. The six corresponding images below each respective bar graph\n3D spheroid proliferation: Prior to seeding, cells were incubated with 2.5 ng/μl CellTracker Red (Life Technologies) in complete DMEM lacking Phenol Red for 5 minutes at room temperature then centrifuged at 1000 RPM for 5 minutes. […] The mixture of cells, treatments, and Matrigel in complete media was seeded at 2000 cells/well in a 96 well plate. The plate was centrifuged at 1000 RPM for 3 minutes to collect the cells into the bottom of the plate. Spheroid growth was imaged for up to 80 hours and analyzed for average red object area using the IncuCyte™ ZOOM software. Data are shown as percent change in spheroid growth between TO and […] with HGF normalized to 100% change in growth. Images were captured by the IncuCyte™ ZOOM imaging system and representative 10× images are shown."}, "[2]": {"target": "wild-type c-Met (Homo sapiens, UniProt P08581)", "sequence (P08581 25-1390)": "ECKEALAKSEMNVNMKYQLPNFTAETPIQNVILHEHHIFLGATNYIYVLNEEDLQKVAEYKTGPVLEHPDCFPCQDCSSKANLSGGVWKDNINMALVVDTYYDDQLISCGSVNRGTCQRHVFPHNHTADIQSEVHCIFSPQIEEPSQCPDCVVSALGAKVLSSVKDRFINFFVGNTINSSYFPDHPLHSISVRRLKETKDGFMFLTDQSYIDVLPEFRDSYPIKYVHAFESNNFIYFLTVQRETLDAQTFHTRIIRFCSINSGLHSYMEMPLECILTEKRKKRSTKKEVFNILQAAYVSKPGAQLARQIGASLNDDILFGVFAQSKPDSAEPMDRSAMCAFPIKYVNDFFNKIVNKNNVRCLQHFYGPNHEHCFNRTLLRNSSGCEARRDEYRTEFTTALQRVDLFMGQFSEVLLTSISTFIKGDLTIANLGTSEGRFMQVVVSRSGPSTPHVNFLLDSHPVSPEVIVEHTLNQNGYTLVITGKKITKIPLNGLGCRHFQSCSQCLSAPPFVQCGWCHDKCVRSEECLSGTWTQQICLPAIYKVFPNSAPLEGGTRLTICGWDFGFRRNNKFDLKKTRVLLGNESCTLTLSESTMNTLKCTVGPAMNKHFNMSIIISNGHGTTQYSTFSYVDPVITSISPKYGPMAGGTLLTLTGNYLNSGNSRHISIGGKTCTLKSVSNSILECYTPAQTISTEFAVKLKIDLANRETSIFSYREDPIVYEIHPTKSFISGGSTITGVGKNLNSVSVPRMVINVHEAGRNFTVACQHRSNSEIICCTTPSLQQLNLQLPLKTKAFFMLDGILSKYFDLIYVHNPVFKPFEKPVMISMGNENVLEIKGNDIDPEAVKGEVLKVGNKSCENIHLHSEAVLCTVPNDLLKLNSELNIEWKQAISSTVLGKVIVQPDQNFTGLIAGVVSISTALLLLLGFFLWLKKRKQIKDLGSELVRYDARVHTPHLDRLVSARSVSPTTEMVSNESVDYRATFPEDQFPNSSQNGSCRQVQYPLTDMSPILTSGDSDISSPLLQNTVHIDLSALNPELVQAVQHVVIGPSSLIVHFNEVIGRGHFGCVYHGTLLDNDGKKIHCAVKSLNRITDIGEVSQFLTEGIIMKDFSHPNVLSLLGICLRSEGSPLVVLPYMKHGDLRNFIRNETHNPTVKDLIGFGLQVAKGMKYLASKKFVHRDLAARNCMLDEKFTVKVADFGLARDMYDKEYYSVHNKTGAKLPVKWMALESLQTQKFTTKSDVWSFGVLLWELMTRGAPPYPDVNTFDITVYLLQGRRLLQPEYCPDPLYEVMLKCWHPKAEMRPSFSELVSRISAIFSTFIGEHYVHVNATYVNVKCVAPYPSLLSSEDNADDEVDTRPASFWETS", "assay": "Phosphorylation inhibition assay (Z′-LYTE Kinase Assay-Tyr6 Peptide), wild-type c-Met", "type": "biochemical", "details": "cell-free kinase assay, 200 μM ATP; read-out: IC50, activation of wild-type c-Met", "procedure": "(§1) Western blot was used to analyze pMet expression. […] Western blot was used to analyze the indicated proteins.\n(§2) Phosphorylation inhibition assay: Z′-LYTE™ Kinase Assay-Tyr6 Peptide kit (Invitrogen) was used to assess the ability of tested compounds to inhibit c-Met phosphorylation. […] After 1 hour incubation at room temperature, 10 μl development solution containing site-specific protease was added to each well. Incubation was continued for 1 hour. The reaction was then stopped, and the fluorescent signal ratio of 445 nm (coumarin)/520 nm (fluorescein) was determined on a plate reader (BioTek FLx800™), which reflects the peptide substrate cleavage status and/or the kinase inhibitory activity in the reaction. […] The IC50 value for each compound was calculated by nonlinear regression of log concentration versus % c-Met phosphorylation ±S.E.M., implemented in GraphPad Prism version 5.0 (GraphPad Software, CA, USA)."}, "[3]": {"test_system": "DU145 cells", "assay": "Invasion through Matrigel", "type": "cell-based", "details": "indicated concentrations; 33 ng/mL HGF; Matrigel 1:5", "procedure": "For invasion (FIGS. 4C and 4D), wounded cells were overlaid with Matrigel diluted 1:5 in serum-free media; n=3.\nWound healing and invasion: DU145 cells were grown to ˜100% confluency prior to wounding with the IncuCyte™ WoundMaker™ (Essen Bioscience; Ann Arbor, Mich.) and washed once with complete media. For invasion, cells were covered with Matrigel diluted 1:5 in serum-free RPMI following wounding. […] Images were taken every 4 hours with the IncuCyte™ ZOOM imaging system (Essen Bioscience). Quadruplicate replicates were used in each experiment. Data are presented as percent wound density ±standard error of the mean (S.E.M.)."}, "[4]": {"assay": "Xenograft study, tolerability (body weight, clinical observation)", "type": "in vivo, Athymic nude mice", "excerpt": "Data are shown as average+S.E.M., *p<0.05.\nXenograft studies: All animal experiments were approved by the Institutional Animal Care and Use Committee, University of Louisiana at Monroe, and were handled in strict accordance with good animal practice as defined by the NIH guidelines. Athymic nude mice (Foxn1^nu/Foxn1^+, 4-5 weeks, female) were purchased from Harlan (Indianapolis, Ind.). The mice had free access to standard pellet food and water. The animals were acclimated to animal house facility conditions at a temperature of 18-25° C., with a relative humidity of 55 to 65% and a 12 h light/dark cycle, for one week prior to the experiments. MDA-MB-231/GFP human breast cancer cells were cultured and resuspended in serum-free DMEM medium (20 μl). After anesthesia, cell suspensions (1×10^6 cells/20 μl) were inoculated subcutaneously into the second mammary gland fat pad just beneath the nipple of each animal to generate orthotopic breast tumors. […] The mice were monitored by measuring tumor volume, body weight, and clinical observation. Tumor volume (V) was calculated by V=L/2×W^2, where L was the length and W was the width of tumors. The results are presented as average ±S.E.M. Differences among various treatment groups were determined by the analysis of variance (ANOVA) followed by Dunnett's test using PASW statistics version 18. […]"}, "[5]": {"target": "c-Met M1250T (M1268T) (Homo sapiens, UniProt P08581, M1250T)", "sequence (P08581 956-1390 M1250T limits assumed)": "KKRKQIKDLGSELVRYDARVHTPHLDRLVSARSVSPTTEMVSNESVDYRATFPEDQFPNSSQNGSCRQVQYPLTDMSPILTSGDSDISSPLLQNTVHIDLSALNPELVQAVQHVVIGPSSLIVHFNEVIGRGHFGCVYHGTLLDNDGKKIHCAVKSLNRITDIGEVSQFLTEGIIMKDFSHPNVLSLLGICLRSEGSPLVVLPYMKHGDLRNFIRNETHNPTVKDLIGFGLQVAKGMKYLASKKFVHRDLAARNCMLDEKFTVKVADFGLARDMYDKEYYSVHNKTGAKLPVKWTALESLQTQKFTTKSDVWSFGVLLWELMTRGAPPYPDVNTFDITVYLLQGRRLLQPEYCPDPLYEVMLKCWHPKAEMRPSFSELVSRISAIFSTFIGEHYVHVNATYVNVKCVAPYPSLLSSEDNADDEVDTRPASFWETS", "assay": "Phosphorylation inhibition assay (Z′-LYTE Kinase Assay-Tyr6 Peptide), mutant c-Met", "type": "biochemical", "details": "cell-free kinase assay, 200 μM ATP", "procedure": "as §1, §2"}},
  "data": [
    {"smiles": "O=S(=O)(O)c1cc(N=C=S)ccc1C=Cc1ccc(N=C=S)cc1S(=O)(=O)O", "note": "[DIDS, 4,4′-Diisothiocyanatostilbene-2,2′-disulfonic acid]", "values": [
      {"measurement": "lowest concentration with some inhibitory effects on HGF-induced spheroid growth", "setting": "[1]", "result": 40, "unit": "nM"},
      {"measurement": "decrease of HGF-induced DU145 spheroid growth", "setting": "[1]; 5 μM compound", "result": "~60", "unit": "%"},
      {"measurement": "IC50", "setting": "[2]", "result": 300, "unit": "nM"},
      {"measurement": "HGF-induced invasion through Matrigel", "setting": "[3]", "result": "inhibited HGF-induced invasion through Matrigel in a dose-dependent manner"},
      {"measurement": "signs of toxicity", "setting": "[4]; 5 mg/kg intraperitoneally, ˜2 weeks, mice", "result": "No obvious signs of toxicity"},
      {"measurement": "body weight compared to DMSO control", "setting": "[4]; 5 mg/kg then 10 mg/kg i.p., 3×/week", "result": "no change in body weight"},
      {"measurement": "IC50", "setting": "[5]", "result": 370, "unit": "nM"}
    ]}
  ]
}
